Source: patent EP4813383A1, “USE OF TAFAMIDIS AND PHARMACEUTICALLY ACCEPTABLE SALT THEREOF IN PREVENTION, ALLEVIATION, OR TREATMENT OF DISEASES ASSOCIATED WITH HIF-2a” (Huaya Jiyuan (Shenzhen) Pharmaceutical Co., Ltd., priority 2024, dated 2025)

Legend:
[1] = test system: aristolochic acid-induced zebrafish model; test: Aristolochic acid-induced zebrafish model: glomerular filtration (whole-body fluorescence of tracer); assay type: in vivo, Wild-type AB strain zebrafish; details: 1 µM in aqueous solution; normal group 100%, model group 239%
Experimental: Wild-type AB strain zebrafish at 2 days post-fertilization are randomly selected and placed in a 6-well plate, with 30 zebrafish treated in each well (treatment group). Other than the normal control group, all treatment groups are exposed to aristolochic acid in aqueous solution to establish a zebrafish renal anemia model. After treatment at 28 °C for 18 hours, a normal control group and a model control group are set up simultaneously. Tafamidis samples are administered in aqueous solution to the treatment groups separately (at concentrations of 0.1 µM and 1 µM separately). Water is administered to the normal control group and the model control group correspondingly, with a volume of 3 mL per well. After continued treatment at 28 °C for 4 hours, all treatment groups are intravenously injected with a fluorescent tracer (dextran tetramethylrhodamine). After a further 1 day of treatment at 28 °C, 10 zebrafish are randomly selected from each treatment group and photographed under a fluorescence microscope. Data are analyzed and collected using NIS-Elements D 3.20 advanced image processing software, and whole-body fluorescence intensity in the zebrafish is analyzed. Statistical analysis of this indicator is used to evaluate the efficacy of the samples in repairing renal injury. Statistical results are expressed as mean±SE. […]

[2] = test system: Cisplatin-induced renal injury and anemia rat model; test: Cisplatin-induced renal injury and anemia rat model; assay type: in vivo, Male Sprague-Dawley (SD) rats; details: 10 mg/kg daily oral for four weeks, kidney sections
[3] = test system: erythropoietin (EPO) gene expression; test: qRT-PCR assay of EPO gene expression in 786-O renal carcinoma cells; assay type: cell-based; details: 20 µM, 24 hours, relative to the vehicle, GAPDH internal control
Experimental: (§1) Experimental method: 786-O renal carcinoma cells are seeded into a 12-well plate. After 24 hours, tafamidis is added at different concentrations (1 µM, 10 µM, and 20 µM, separately), and the cells are co-incubated with the compound for 24 hours. No treatment is applied to the vehicle group. RNA is extracted using a TRIZOL reagent. cDNA transcription is performed using an All-in-one™ First-Strand cDNA Synthesis Kit (for specific operating procedures, see the manufacturer's instructions). A SYBR reagent is used for fluorescence signal detection, and GAPDH is used as an internal control. The qRT-PCR primers are as follows: • GAPDH_fwd, […]; • GAPDH_rev, TGGTGAAGACGCCAGTGGA; • VEGF_fwd, […]; • VEGF_rev, […]; • EPO_fwd, […]; • EPO_rev, […].

[4] = test system: vascular endothelial growth factor (VEGF) gene expression; test: qRT-PCR assay of VEGF gene expression in 786-O renal carcinoma cells; assay type: cell-based; details: 24 hours, relative to the vehicle, GAPDH internal control
Experimental: as §1

[5] = test system: aristolochic acid-induced zebrafish model; test: Aristolochic acid-induced zebrafish model: cardiac erythrocyte staining intensity (renal anemia); assay type: in vivo, Wild-type AB strain zebrafish; details: 30 hours, normal group 100%, model group 46%
Experimental: Wild-type AB strain zebrafish at 2 days post-fertilization are randomly selected and placed in a 6-well plate, with 30 zebrafish treated in each well (treatment group). Other than the normal control group, all treatment groups are exposed to aristolochic acid in aqueous solution to establish a zebrafish renal anemia model. After treatment at 28 °C for 18 hours, a normal control group and a model control group are set up simultaneously. Tafamidis samples are administered in aqueous solution to the treatment groups separately (at concentrations of 0.1 µM and 1 µM separately). Water is administered to the normal control group and the model control group correspondingly, with a volume of 3 mL per well. After continued treatment at 28 °C for 30 hours, staining is performed using o-dianisidine. After staining, 10 zebrafish are randomly selected from each treatment group and photographed under a dissecting microscope. Data is collected using NIS-Elements D 3.20 advanced image processing software, and the staining intensity of cardiac erythrocytes in the zebrafish is analyzed. The statistical significance of this indicator is used to evaluate the efficacy of the sample in alleviating renal anemia. Statistical analysis is performed using SPSS 26.0 software, and p < 0.05 indicates a statistically significant difference.

## O=C(O)c1ccc2nc(-c3cc(Cl)cc(Cl)c3)oc2c1 [tafamidis, 2-(3,5-dichlorophenyl)-1,3-benzoxazole-6-carboxylic acid]
[1]
  glomerular filtration rate: 158%
[2]
  α-smooth muscle actin (α-SMA) protein levels, immunohistochemical: significantly reduces
[3]
  upregulates erythropoietin (EPO) gene expression: 0.9 fold
[4]; 10 µM
  upregulates vascular endothelial growth factor (VEGF) gene expression: 0.5 fold
[4]; 20 µM
  upregulates VEGF gene expression: 1.4 fold
[5]; 0.1 µM in aqueous solution
  cardiac red blood cell count: 60%
[5]; 1 µM in aqueous solution
  cardiac red blood cell count: 65%
